Laboratory results published in patent publication US10575485B2, “Wheat plants having increased resistance to imidazolinone herbicides” (The Department of Agriculture, Western Australia, priority 2002, dated 2020).

Assays:
[1] = test system: AHAS extracted from wild type and tolerant wheat plants; assay: In vitro AHAS enzyme activity in the presence of imidazolinone herbicide; type: biochemical, Triticum aestivum
Description: Because the tolerance in K-42 and Br-8 is due to a mutation in the AHAS enzyme rendering it resistant to inhibition by imidazolinone herbicides, the in vitro activity of AHAS extracted from wild type plants (not having the mutation for tolerance) can be compared to the in vitro activity of AHAS extracted from tolerant plants in the presence of varying concentrations of an imidazolinone herbicide. K-42 was compared to the wild type variety Krichauff, and Br-8 was compared to the wild type variety Brookton. […] As explained in Example 2, the in vitro AHAS enzyme activity can be compared among lines with and without a mutation conferring resistance to inhibition by imidazolinone herbicides. […]

[2] = test system: wheat plants (K-42, Br-8, K-42/Br-8, wild type Krichauff and Brookton); assay: Greenhouse herbicide tolerance, injury scored on a 0-9 scale; type: in vivo, Triticum aestivum; details: 40 and 120 g/ha
Procedure: Tolerance of K-42 and Br-8 to the imidazolinone herbicide imazamox was evaluated at 40 and 120 g/ha in the greenhouse. Wild type Krichauff and Brookton were used as herbicide susceptible controls. 24 plants were treated at each rate at the 2-3 leaf stage. Injury was scored on a 0-9 scale, 0 representing no injury and 9 representing plant death. FIG. 4 summarizes the data collected 14 and 21 days after treatment. In Example 1, reference was made to crosses between K-42, containing a mutation in Als3 conferring imidazolinone herbicide tolerance, and FS-2 and Br-8, each containing a mutation in Als1 also conferring imidazolinone herbicide tolerance. Krichauff and Brookton are the wheat varieties from which K-42 and Br-8, respectively, were derived. Lines derived from the K-42/FS-2 cross were tolerant to rates of up to six times that required for economic weed control in the field. One line derived from the K-42/Br-8 cross was evaluated in the greenhouse for tolerance to 40 and 120 grams/hectare of irnazamox. Injury was scored on a 0-9 scale, 0 representing no injury and 9 representing plant death.

[3] = test system: Triticum aestivum wheat lines K-42 and Br-8; assay: Seed soak and spray selection of mutagenised wheat lines for imazamox tolerance; type: in vivo; details: M3 seed soaked in 50 ppm solution for 24 hours, subsequent plants sprayed with 50 ppm
Procedure: 840 grams of seed of the Triticum aestivuni wheat varieties Krichauff and Brookton were soaked in a sodium azide solution (0.065 g/L) to produce M1 seed. M1 plants were allowed to self pollinate to produce M2 seed. M2 seed were soaked in a 50 ppm solution of the imidazolinone herbicide imazamox for 24 hours prior to sowing in the field. Resultant plants that appeared to have normal growth eight to nine weeks after sowing were transplanted from the field to a greenhouse for M3 seed production. To confirm herbicide tolerance, M3 seed were soaked in a 50 ppm solution of imazamox for 24 hours prior to sowing, and subsequent plants were sprayed with a solution of 50 ppm of imazamox.

## COCc1cnc(C2=NC(C)(C(C)C)C(=O)N2)c(C(=O)O)c1 (stereo not drawn) [imazamox]
[1]; 100 μM imazamox
  Residual uninhibited AHAS in Br-8 and K-42: sufficient to provide a herbicide tolerant response
[1]; wild type Krichauff and Brookton versus K-42 and Br-8
  Uninhibited AHAS enzyme activity with increasing herbicide concentration (FIG. 5): decreased faster in wild type lines than in either Br-8 or K-42
[2]; 2-3 leaf stage, 14 and 21 days after treatment
  Resistance and injury of K-42 and BR-8 relative to wild type counterparts (FIG. 4): increased resistance and decreased injury
[2]; injury 0-9 scale
  Tolerance and injury of the line derived from the K-42/Br-8 cross (FIG. 6): greatly enhanced tolerance at both 40 and 120 g/ha with very little injury
[3]
  Herbicide tolerance of M2-derived lines K-42 and Br-8: identified as tolerant to imazamox

## CCc1cnc(C2=NC(C)(C(C)C)C(=O)N2)c(C(=O)O)c1 (stereo not drawn) [imazethapyr]
[1]; four highest herbicide concentrations, compared with Br-8, K-42 and wild type
  Percent uninhibited AHAS activity in the Br-8/K-42 combination (FIG. 7): increase in percent uninhibited AHAS activity
